Where a name gives a salt, the structure may show the parent alone.
Columns and labels:
LTD4 receptor = target: T1, LTD4 receptor (Cavia porcellus, UniProt Q2NNR5); experiment: [3H]LTD4 receptor binding, guinea-pig lung membranes, direct competition assay; conditions: negative logarithm of the molar concentration inhibiting [3H]LTD4 binding by 50%
T1 construct: from tissue; host or cells: guinea-pig lung membranes
T1 sequence (Q2NNR5 1-340): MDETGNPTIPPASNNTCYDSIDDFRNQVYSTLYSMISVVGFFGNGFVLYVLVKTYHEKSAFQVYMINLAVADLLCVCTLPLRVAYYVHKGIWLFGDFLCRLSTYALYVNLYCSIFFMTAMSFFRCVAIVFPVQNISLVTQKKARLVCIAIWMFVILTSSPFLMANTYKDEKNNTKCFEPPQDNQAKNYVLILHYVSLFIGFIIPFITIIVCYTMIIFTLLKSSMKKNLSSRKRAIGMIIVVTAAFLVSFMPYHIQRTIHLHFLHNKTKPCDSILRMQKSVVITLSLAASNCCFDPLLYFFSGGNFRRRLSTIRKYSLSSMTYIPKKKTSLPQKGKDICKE
Text: It is of importance to investigate the receptor binding properties of leukotriene antagonists in relation to their pKB values (13), i.e. to correlate antagonist receptor blocking with inhibition of smooth muscle contraction. Receptor binding studies may be performed with guinea-pig lung membranes in a direct competition assay between a leukotriene antagonist and [^3 H]LTD4 for binding to the LTD4 receptor (10,13).

[1] = target: T2, guinea-pig tracheal strips (LTD4) (Cavia porcellus, UniProt Q2NNR5); experiment: leukotriene antagonism on guinea-pig tracheal strips (LTD4 concentration-response); format: cell-based; conditions: negative logarithm of the antagonist dissociation constant, -log([antagonist]/(dose ratio -1)), indomethacin present
T2 construct: from tissue; host or cells: guinea-pig tracheal strips
T2 sequence (Q2NNR5 1-340): T1 sequence (Q2NNR5 1-340)
Text: Leukotriene antagonists may be further characterized using guinea-pig tracheal strips instead of ileum strips (10). In this relevant in vitro model of human airways (11) tracheal strips are suspended in a physiological buffer containing indomethacin. A concentration-response curve to LTD4 is generated in the presence and absence of the leukotriene antagonists. From these curves the potency of a leukotriene antagonist may be expressed as the pKB value, the negative logarithm of the antagonist dissociation constant. The pKB value is determined as -log([antagonist]/(dose ratio -1)), where the dose ratio is defined as EC50 (presence of antagonist)/EC50 (absence of antagonist) and EC50 refers to the concentration of LTD4 eliciting 50% of the maximum response to LTD4 (12).

[2] = test system: guinea-pig ileum strips (LTD4); experiment: inhibition of LTD4-induced contraction of guinea-pig ileum strips; format: cell-based; conditions: LTD4 at 10^-9 M; compound added 2 minutes prior; atropine and indomethacin present
Procedure: Leukotriene antagonists may be identified by observing the contractions elicited in preparations of guinea-pig ileum strips suspended in a physiological buffer by addition of pure leukotriene D4 (LTD4) (10). The ileum strips are connected to an isotonic transducer, and the contractions are continuously recorded on a multichannel recorder. Before addition of LTD4, atropine and indomethacin are added to the buffer in order to block any cholinergic or prostaglandin mediated contractile effects. Test compounds to be studied with respect to leukotriene antagonism are dissolved in DMSO and added to the organ bath 2 minutes prior to addition of LTD4 at 10^-9 M (final concentration), the final concentration of DMSO being 0.1%, a concentration which can be shown not to affect the ileum response to LTD4. The test compounds may be added at various concentrations, often beginning at […] and then decreasing the concentration in case of antagonism.
When the compounds of the present invention were added to the ileum preparation before addition of LTD4 a significant inhibition occurred of the specific LTD4 -induced contraction. […] On other hand, contractions induced with histamine at 10^-7 M were not inhibited by these compounds even at micromolar concentrations.

5-lipoxygenase = target: T3, 5-lipoxygenase (Rattus norvegicus, UniProt P12527); experiment: 5-lipoxygenase activity in vitro (A23187-stimulated rat peritoneal cells, leukotriene B4 and 5-HETE production); format: cell-based; conditions: final concentration of 10^-6 M; A23187 2×10^-6 M
T3 construct: LTB4 and 5-HETE measured by TLC
T3 sequence (P12527 1-673): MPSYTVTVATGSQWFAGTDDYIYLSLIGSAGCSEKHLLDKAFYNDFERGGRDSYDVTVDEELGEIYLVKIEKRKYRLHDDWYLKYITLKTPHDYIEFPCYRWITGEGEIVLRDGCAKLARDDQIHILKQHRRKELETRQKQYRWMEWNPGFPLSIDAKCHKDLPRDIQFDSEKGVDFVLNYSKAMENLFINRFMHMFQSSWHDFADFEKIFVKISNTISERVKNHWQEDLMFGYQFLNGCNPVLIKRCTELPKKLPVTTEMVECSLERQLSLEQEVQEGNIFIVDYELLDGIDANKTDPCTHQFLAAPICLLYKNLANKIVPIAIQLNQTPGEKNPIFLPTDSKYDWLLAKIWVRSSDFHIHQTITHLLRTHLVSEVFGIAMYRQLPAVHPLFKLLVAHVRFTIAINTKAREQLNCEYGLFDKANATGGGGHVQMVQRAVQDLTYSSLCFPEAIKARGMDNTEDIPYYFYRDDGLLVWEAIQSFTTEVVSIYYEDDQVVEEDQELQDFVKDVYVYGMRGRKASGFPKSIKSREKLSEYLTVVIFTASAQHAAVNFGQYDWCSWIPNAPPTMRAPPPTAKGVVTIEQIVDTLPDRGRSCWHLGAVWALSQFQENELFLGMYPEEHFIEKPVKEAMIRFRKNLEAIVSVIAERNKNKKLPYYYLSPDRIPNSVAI
Procedure: The following method was used to assay 5-lipoxygenase activity in vitro: Rat peritoneal cells were harvested by i.p. injection of 10 ml Hank's balanced salt solution (GIBCO, cat No. 4025, U.S.A.) containing 12.5 U/ml sodium heparin (Leo, Denmark) in anaesthesized rats. The resulting cell suspension, which mainly contained macrophages, was transferred to a test tube and washed twice by centrifugation (200 g, 10 min.) and resuspended in Hank's balanced salt solution containing 0.5% bovine serum albumin (BSA) (Sigma Chem. Co., U.S.A.). The cells from 9 rats were finally resuspended in Hank's balanced salt solution (with BSA) containing 5μCi [1-^14 C]arachidonic acid (The Radiochemical Centre, Amersham, U.K.) and incubated for 90 minutes at 37° C. This caused labelling of cell membrane phospholipids as radioactive arachidonic acid was incorporated in the 2-position of the glycerol moiety. Excess arachidonic acid was then removed by washing the cells twice as described above. The cells were finally resuspended in the same solution (without BSA) at 10^7 cells/ml. 475 μl of the cell suspension was preincubated at 37° C. for 5 minutes with either 5 μl dimethylsalphoxide (DMSO) (control tube), or 5 μl of a drug solution in DMSO. Then 20 μl of a mixture of equal volumes of the calcium ionophore A23187, 10^-4 M in ethanol (Calbiochem, U.S.A.), and 0.4M CaCl2 in water was added. The final concentration of A23187 was thus 2×10^-6 M, and of Ca^++ 8 mM. After 5 minutes of incubation the tubes were transferred to an ice-bath and centrifuged for 10 minutes at 3,000 g (4° C.). An aliquot of the supernatant was counted by liquid scintillation spectrometry in order to calculate the total radioactive release induced by A23187 in presence of drugs. A decrease in radioactive release was taken as indication of phospholipase A2 inhibition. The supernatant was then extracted with ethyl acetate (2 ml), adjusted to pH 3 with 1N HCl and further extracted with 2 ml ethyl acetate. The combined extracts were evaporated to dryness in vacuo, the residue was redissolved in a small volume of methanol and applied by means of a Desaga Autospotter™ to a silica-gel coated thin-layer plate fitted with a polar concentrating zone (Merck Art. 11798, Darmstadt, F.R.G.). The plates were developed in the organic layer of the solvent mixture ethyl acetate/acetic acid/iso-octane/water (55:10:25:50). Radioactive spots were detected by autoradiography (AGFA-GEVAERT, Osray-RPI X-ray film, Belgium), and changes induced by drugs in the metabolic pattern of arachidonic acid were quantified by a laser densitometer (LKB, Ultroscan ™2202, Bromma, Sweden) in combination with an integrating computer (SP 4100, Spectra-Physics, San Jose, Calif., U.S.A.). […]

cyclooxygenase = experiment: synthesis of cyclooxygenase products in A23187-stimulated rat peritoneal cells; format: cell-based; conditions: final concentration of 10^-6 M
Procedure: The following method was used to assay 5-lipoxygenase activity in vitro: Rat peritoneal cells were harvested by i.p. injection of 10 ml Hank's balanced salt solution (GIBCO, cat No. 4025, U.S.A.) containing 12.5 U/ml sodium heparin (Leo, Denmark) in anaesthesized rats. The resulting cell suspension, which mainly contained macrophages, was transferred to a test tube and washed twice by centrifugation (200 g, 10 min.) and resuspended in Hank's balanced salt solution containing 0.5% bovine serum albumin (BSA) (Sigma Chem. Co., U.S.A.). The cells from 9 rats were finally resuspended in Hank's balanced salt solution (with BSA) containing 5μCi [1-^14 C]arachidonic acid (The Radiochemical Centre, Amersham, U.K.) and incubated for 90 minutes at 37° C. This caused labelling of cell membrane phospholipids as radioactive arachidonic acid was incorporated in the 2-position of the glycerol moiety. Excess arachidonic acid was then removed by washing the cells twice as described above. The cells were finally resuspended in the same solution (without BSA) at 10^7 cells/ml. 475 μl of the cell suspension was preincubated at 37° C. for 5 minutes with either 5 μl dimethylsalphoxide (DMSO) (control tube), or 5 μl of a drug solution in DMSO. Then 20 μl of a mixture of equal volumes of the calcium ionophore A23187, 10^-4 M in ethanol (Calbiochem, U.S.A.), and 0.4M CaCl2 in water was added. The final concentration of A23187 was thus 2×10^-6 M, and of Ca^++ 8 mM. After 5 minutes of incubation the tubes were transferred to an ice-bath and centrifuged for 10 minutes at 3,000 g (4° C.). An aliquot of the supernatant was counted by liquid scintillation spectrometry in order to calculate the total radioactive release induced by A23187 in presence of drugs. A decrease in radioactive release was taken as indication of phospholipase A2 inhibition. The supernatant was then extracted with ethyl acetate (2 ml), adjusted to pH 3 with 1N HCl and further extracted with 2 ml ethyl acetate. The combined extracts were evaporated to dryness in vacuo, the residue was redissolved in a small volume of methanol and applied by means of a Desaga Autospotter™ to a silica-gel coated thin-layer plate fitted with a polar concentrating zone (Merck Art. 11798, Darmstadt, F.R.G.). The plates were developed in the organic layer of the solvent mixture ethyl acetate/acetic acid/iso-octane/water (55:10:25:50). Radioactive spots were detected by autoradiography (AGFA-GEVAERT, Osray-RPI X-ray film, Belgium), and changes induced by drugs in the metabolic pattern of arachidonic acid were quantified by a laser densitometer (LKB, Ultroscan ™2202, Bromma, Sweden) in combination with an integrating computer (SP 4100, Spectra-Physics, San Jose, Calif., U.S.A.).
These cells produced measurable amounts of radioactive 6-keto-prostaglandinF1α, thromboxane B2, prostaglandin D2, hydroxyheptadecatrienoic acid (HHT) (all cyclooxygenase products), 5-hydroxyeicosatetraenoic acid (5-HETE) and leukotriene B4 (both 5-lipoxygenase products).
At the same time, a decrease in synthesis of the cyclooxygenase products HHT, prostaglandin D2, thromboxane B2 and 6-ketoprostaglandin F1α was not observed. This pattern of drug activity is indicative of truly specific 5-lipoxygenase inhibition.

| Compound | IC50 (LTD4 receptor) [nM] | Kb [1] [nM] | concentrations at which inhibition of LTD4-induced contraction occurred [2] | decrease in the production of 5-HETE (5-lipoxygenase) | decrease in the production of leukotriene B4 (5-lipoxygenase) | decrease in synthesis of the cyclooxygenase product 6-ketoprostaglandin F1α (cyclooxygenase) | decrease in synthesis of the cyclooxygenase product HHT (cyclooxygenase) | decrease in synthesis of the cyclooxygenase product prostaglandin D2 (cyclooxygenase) | decrease in synthesis of the cyclooxygenase product thromboxane B2 (cyclooxygenase) |
| --- | --- | --- | --- | --- | --- | --- | --- | --- | --- |
| O=C(O)C(Nc1cccc(OCc2ccc3ccccc3n2)c1)c1ccccc1 (racemic) [Example 15, (S,R)-2-[3-(2-Quinolylmethyloxy)-anilino]-2-phenyl acetic acid] | 15.8 | 1 |  |  |  |  |  |  |  |
| O=C(O)C(Nc1ccc(OCc2ccc3ccccc3n2)cc1)c1ccccc1 (racemic) [Example 17, (S,R)-2-[4-(2-Quinolylmethyloxy)-anilino]-2-phenyl acetic acid] |  |  | submicromolar range |  |  |  |  |  |  |
| O=C(O)[C@H](O)[C@H](Nc1cccc(OCc2ccc3ccccc3n2)c1)c1ccccc1 (relative stereo) [Example 1, (2R,3R;2S,3S)-3-[3-(2-Quinolylmethoxy)-anilino]-2-hydroxy-3-phenyl propionic acid, sodium salt] | 2.51 | 0.2 |  |  |  |  |  |  |  |
| CCOC(=O)[C@H](O)[C@H](Nc1cccc(OCc2ccc3ccccc3n2)c1)c1cccc(Cl)c1 (relative stereo) [Example 9] |  |  |  | significant and specific decrease | significant and specific decrease | not observed | not observed | not observed | not observed |
| CCOC(=O)[C@H](O)[C@H](Nc1ccc(OCc2ccc3ccccc3n2)cc1)c1ccccc1 (relative stereo) [Example 11, (2S,3R;2S,3S)-3-[4-(2-Quinolylmethyloxy)-anilino]-2-hydroxy-3-phenyl propionic acid ethyl ester] |  |  |  | significant and specific decrease | significant and specific decrease | not observed | not observed | not observed | not observed |
